Tests used:
[1] = Half life in Sprague-Dawley rat at 1 mg/kg, iv; assay type: ADME, organism-based; set-up: dose 1 mg/kg, route intravenous; conditions: in vivo
[2] = Ratio of drug level in brain to blood in Lister Hooded rat at 3 mg/kg, po after 3 hrs; assay type: ADME, organism-based; set-up: dose 3 mg/kg, route oral
[3] = Blood clearance in Sprague-Dawley rat at 1 mg/kg, iv; assay type: ADME, organism-based; set-up: dose 1 mg/kg, route intravenous
[4] = system: Liver; assay: Clearance in rat liver assessed per gram of tissue; assay type: ADME, tissue-based; conditions: in vivo
[5] = Drug uptake in Lister Hooded rat blood at 3 mg/kg, po after 3 hrs; assay type: ADME, organism-based; set-up: dose 3 mg/kg, route oral; conditions: read-out: Drug uptake
[6] = system: Liver; assay: Clearance in human liver assessed per gram of tissue; assay type: ADME, tissue-based
[7] = system: Blood; assay: Drug level in novel object recognition model of rat blood at 0.1 mg/kg, po; assay type: ADME, organism-based; set-up: dose 0.1 mg/kg, route oral; conditions: in vivo, read-out: Drug uptake
[8] = Intrinsic permeability of the compound in MDCK cells expressing MDR1; assay type: ADME, cell-based, Canis lupus familiaris; conditions: dog

| Structure (SMILES) | half-life [1] | Kp at 3 h [2] | clearance [3] | CLH [4] | concentration at 3 h [5] | CLH [6] | concentration [7] | Papp [8] |
| --- | --- | --- | --- | --- | --- | --- | --- | --- |
| COc1cc(NC(=O)c2ccccc2F)ccc1-c1nnc(NCCCN2CCCCC2)o1.Cl | 3.2 h | 0.4 | 28 mL/min/kg | < 0.5 mL/min/g | 270 nM | < 0.3 mL/min/g | – | – |
| COc1cc(NC(=O)c2ccccc2F)ccc1-c1nnc(NCCCN2CCOCC2)o1.Cl | 0.6 h | 0.12 | 41 mL/min/kg | < 0.5 mL/min/g | 294 nM | 0.5 mL/min/g | – | – |
| COc1cc(NC(=O)c2ccccc2F)ccc1-c1nnc(NCCCN2CCCCC2)o1 | – | – | – | – | – | – | 205 nM | 32.5 ×10⁻⁶ cm/s |
| Cl.O=C(Nc1ccc(-c2nnc(NCCCN3CCCCC3)o2)cc1)c1ccccc1F | 2.9 h | 1.7 | 67 mL/min/kg | < 0.2 mL/min/g | 205 nM | 0.5 mL/min/g | – | – |

— ChEMBL document CHEMBL2021886, “Identification of a series of 1,3,4-oxadiazol-2-amines as potent alpha-7 agonists with efficacy in the novel object recognition model of cognition” (Bioorg Med Chem Lett, 2012)
